Source: patent publication US12121503B2, “Antiviral treatments” (priority 2006, dated 2024)
Several values for one entry are separate records, joined by “and”; a condition that tells them apart may be missing. Equal entries are not always repeated. Marks after values point to notes of the source that are not given here.

How the values were obtained:
[1] = tested on: Influenza A/Duck/MN/152518 (H5N1); type: in vivo, BALB/c mice
influenza virus [2] = details: cited from earlier work
influenza virus [3] = details: cited from earlier work; remark: listed apart in the source
influenza infection = details: oral administration over a period of days; cited from earlier work
[4] = Plasma levels after i.v. administration in mice
[5] = Toxicity controls: uninfected mice treated in parallel; details: for Tox Controls Surv/Total: 21 days
[6] = Phase I clinical study in healthy human volunteers, plasma concentration after intravenous and intramuscular administration
[7] = intramuscular, healthy human volunteers

CCC(CC)C(NC(C)=O)[C@@H]1[C@H](O)[C@@H](C(=O)O)C[C@H]1NC(=N)N (stereo partly drawn) [Peramivir, (1S,2S,3R,4R)-3-(1-Acetamido-2-ethylbutyl)-4-guanidino-2-hydroxycyclopentane-carboxylic acid]
Infected, Treated Mice Surv/Total ([1]; 21 days): 10/10** and 5/10
Effect on lung parameters ([1]; mouse, in vivo): moderately inhibitory
Infected animals surviving the infection ([1]; mouse, in vivo): 100%
Protection of mice (prevention of deaths, lessening of lung consolidation, inhibition of lung virus titers) ([1]; mouse, in vivo): significantly protective
Activity against the influenza virus in vitro (influenza virus [2]): marked activity
Activity against the influenza virus in experimentally infected mice (influenza virus [3]): marked activity
Therapeutic effect on influenza infection in humans (influenza infection): suboptimal therapeutic effect
Time at relatively high levels in the plasma [4]: at least 6 hours
Tox Controls Surv/Total ([5]; 3 mg/kg i.v.): 3/3
Tox Controls Surv/Total ([5]; 10 mg/kg i.v.): 3/3
Tox Controls Surv/Total ([5]; 20 mg/kg i.v.): 3/3
Survival and weight of toxicity controls ([5]; i.v., run in parallel): all survived and gained weight
Tolerability in toxicity controls ([5]; i.v., run in parallel): well tolerated
half-life ([6]; human, plasma, iv): > 12 h
Kinetics of plasma concentrations [6, 7]: linear kinetics
Plasma half life [6, 7]: unusually extended
Kinetics of plasma concentrations ([6]; intravenous, healthy human volunteers): linear kinetics
